Experimental data taken from the Deep4Chem optical property database.
Each block holds one compound with its values, some of them ahead of it.

Assay: solvent given as SMILES

Structure (SMILES): Cc1ccc(C2=C3C=CC([Te]c4ccccc4)=[N+]3[B-](F)(F)n3c([Te]c4ccccc4)ccc32)cc1
absorption maximum (in C1CCOC1): 620 nm

absorption maximum (in C1CCCCC1): 326 nm
Structure (SMILES): Nc1ccc2[nH]ncc2c1

absorption maximum (in CS(C)=O): 633 nm
Structure (SMILES): COc1ccc(-c2c3nc(cc4ccc([nH]4)c(-c4ccc(OC)c(OCC(=O)O)c4)c4nc(cc5ccc2[nH]5)C=C4)C=C3)cc1OCC(=O)O

Structure (SMILES): CCN1c2ccccc2Sc2cc(/C=C(\C#N)c3ccccc3)ccc21
absorption maximum (in C1CCOC1): 411 nm
absorption maximum (in CC#N): 409 nm
absorption maximum (in CC(C)=O): 410 nm
absorption maximum (in CN(C)C=O): 414 nm
absorption maximum (in CS(C)=O): 418 nm
absorption maximum (in Cc1ccccc1): 412 nm
absorption maximum (in ClCCl): 413 nm

absorption maximum (in CO): 306 nm
Structure (SMILES): Brc1cnc(-c2ccncc2)s1

absorption maximum (in ClCCl): 435 nm
Structure (SMILES): CCCCN(CCCC)c1ccc(C#Cc2cc(C#Cc3ccc(N(CCCC)CCCC)cc3)c(C#Cc3ccc(C#N)cc3)cc2C#Cc2ccc(C#N)cc2)cc1

Structure (SMILES): CCOC(=O)/C=C/c1ccc(N(C)C)cc1
absorption maximum (in C1CCCCC1): 353 nm
absorption maximum (in C1CCOC1): 362 nm
absorption maximum (in C1COCCO1): 359 nm
absorption maximum (in CC#N): 363 nm
absorption maximum (in CCCCCCCCO): 363 nm
absorption maximum (in CCCCCCO): 365 nm
absorption maximum (in CCCCO): 363 nm
absorption maximum (in CCCO): 364 nm
absorption maximum (in CCO): 363 nm
absorption maximum (in CCOC(C)=O): 360 nm
absorption maximum (in CO): 362 nm
absorption maximum (in Cc1ccccc1): 362 nm
absorption maximum (in O): 373 nm
absorption maximum (in c1ccccc1): 363 nm

absorption maximum (in ClC(Cl)Cl): 410 nm
Structure (SMILES): O=C1CC(c2ccccc2)c2c(c3ccccc3c3nc4ccccc4nc23)O1 (stereo not given)

Structure (SMILES): Cc1cc(-c2nc(-c3ccccc3)nc(-c3ccccc3)n2)ccc1-n1c2ccccc2c2cc3c(cc21)C1c2ccccc2C3c2ccccc21
absorption maximum (in Cc1ccccc1): 364 nm

absorption maximum (in ClC(Cl)Cl): 482 nm
Structure (SMILES): N#CC1=CC(Br)=CC(C#N)=P1(c1ccccc1)c1ccccc1

absorption maximum (in C1CCCCC1): 366 nm
Structure (SMILES): CCCC1(CCC)c2cc(-c3ccc(C(C)(C)C)cc3)ccc2-c2ccc(-c3ccc4c(c3)C(CCC)(CCC)c3cc(-c5ccc6c(c5)C(CCC)(CCC)c5cc(-c7ccc8c(c7)C(CCC)(CCC)c7cc(-c9ccc(C(C)(C)C)cc9)ccc7-8)ccc5-6)ccc3-4)cc21

absorption maximum (in ClCCl): 505.72 nm
Structure (SMILES): O=C1c2ccccc2C(=O)C1C1C(=O)c2c3ccccc3cc3cc4ccccc4c1c23 (stereo not given)

Structure (SMILES): c1ccc2c(c1)c1ccccc1n2-c1ccc(-c2nnc(-c3ccc(-n4c5ccccc5c5ccccc54)cc3)o2)cc1
absorption maximum (in Cc1ccccc1): 343 nm

absorption maximum (in CC#N): 438 nm
absorption maximum (in CC(C)O): 484 nm
absorption maximum (in CCO): 477 nm
absorption maximum (in CCOC(C)=O): 433.4 nm
absorption maximum (in CO): 474 nm
Structure (SMILES): Nc1ccc2c(c1)C(=O)c1ccc(N)cc1C2=O

absorption maximum (in O): 402 nm
Structure (SMILES): CCNc1ccc2c(c1)C(C)(C)C(=O)C=C2

Structure (SMILES): CC(C)[Si]1(C(C)C)c2cc(C=C(C#N)C#N)ccc2-c2ccc(N(c3ccccc3)c3ccccc3)cc21
absorption maximum (in C1CCCCC1): 484 nm
absorption maximum (in CC#N): 461 nm
absorption maximum (in CCO): 467 nm
absorption maximum (in CCOCC): 467 nm
absorption maximum (in CS(C)=O): 466 nm
absorption maximum (in ClCCl): 481 nm
absorption maximum (in c1ccccc1): 477 nm

Structure (SMILES): COc1ccc(/C=C/c2ccc(-c3nnc(-c4ccc(-c5cc6ccccc6s5)cc4)o3)cc2)cc1
absorption maximum (in CC#N): 337 nm
absorption maximum (in CC(C)=O): 341 nm
absorption maximum (in CCCCCCCC): 337 nm
absorption maximum (in CCCCCCCCCCO): 346 nm
absorption maximum (in CCCCCCCCO): 347 nm
absorption maximum (in CCCCCO): 346 nm
absorption maximum (in CCCO): 345 nm
absorption maximum (in CN(C)C=O): 351 nm
absorption maximum (in CO): 345 nm
absorption maximum (in CS(C)=O): 348 nm

Structure (SMILES): CC(=O)c1c2c(cc3c(N(C)C)cccc13)CCC2
absorption maximum (in C1CCCCC1): 314 nm
absorption maximum (in C1CCOC1): 330 nm
absorption maximum (in C1COCCO1): 319 nm
absorption maximum (in CC#N): 316 nm
absorption maximum (in CCO): 334 nm
absorption maximum (in CS(C)=O): 334 nm
absorption maximum (in Cc1ccccc1): 322 nm
absorption maximum (in ClC(Cl)Cl): 334 nm
absorption maximum (in ClCCl): 334 nm

absorption maximum (in ClC(Cl)Cl): 427 nm
Structure (SMILES): CCCCn1c(=O)c2cc3ccc4cccc5ccc(c2c1=O)c3c45

absorption maximum (in C1CCCCC1): 295 nm
Structure (SMILES): c1cc(-c2ccc3c(c2)CCCO3)ccc1-c1ccc2c(c1)CCCO2

absorption maximum (in CO): 784 nm
Structure (SMILES): CC1(C)C(/C=C/C2=C(Cl)C(=C/C=C3/N(Cc4ccc(F)cc4)c4ccccc4C3(C)C)/CCC2)=[N+](Cc2ccc(F)cc2)c2ccccc21

Structure (SMILES): CCCCC1(CCCC)c2cc(/C=C/c3ccc(N(c4ccccc4)c4ccccc4)cc3)ccc2-c2cc3c(cc21)-c1ccc(/C=C/c2ccc(N(c4ccccc4)c4ccccc4)cc2)cc1C3(CCCC)CCCC
absorption maximum (in Cc1ccccc1): 413 nm

absorption maximum (in CC(C)(C)O): 393 nm
absorption maximum (in CC(C)CO): 390 nm
absorption maximum (in CC(C)O): 391 nm
absorption maximum (in CCCCO): 378 nm
absorption maximum (in CCCO): 367 nm
absorption maximum (in CCO): 364 nm
absorption maximum (in CN(C)C=O): 393 nm
absorption maximum (in CNC=O): 350 nm
absorption maximum (in CO): 354 nm
absorption maximum (in NC=O): 354 nm
absorption maximum (in O): 394 nm
Structure (SMILES): COCCOCCOCCOc1cc(C=O)c(OCCOCCOCCOC)cc1C=O

Structure (SMILES): C(#Cc1ccc(-n2c3ccccc3c3ccccc32)cc1)c1ccccc1
absorption maximum (in CC#N): 324 nm
absorption maximum (in CCCCC): 323 nm
absorption maximum (in CO): 322 nm
absorption maximum (in Cc1ccccc1): 329 nm
absorption maximum (in ClC(Cl)Cl): 326 nm
absorption maximum (in ClCCl): 326 nm

absorption maximum (in C1CCCCC1): 489 nm
absorption maximum (in CC#N): 504 nm
absorption maximum (in CCO): 506 nm
Structure (SMILES): COc1cc(OC)c2c(c1)C(=O)c1cc(OC)cc(OC)c1-2

Structure (SMILES): CCC1=C(C)C2=Cc3cc(I)c(I)n3[B-](F)(F)[N+]2=C1C
absorption maximum (in C1CCCCC1): 542 nm
absorption maximum (in CC(C)=O): 524.5 nm
absorption maximum (in CCO): 529 nm
absorption maximum (in CCOC(C)=O): 528 nm
absorption maximum (in CO): 526.5 nm
absorption maximum (in OCC(F)(F)F): 520 nm

absorption maximum (in C1CCCCC1): 382.68 nm
Structure (SMILES): C[Si](C)(C)[Si](C)(C)c1ccc2cc3ccccc3cc2c1

Structure (SMILES): COc1ccc2c(=O)c3c([nH]c2c1)-c1cc(Cl)ccc1NC3(C)C
absorption maximum (in C1CCOC1): 411 nm
absorption maximum (in CC#N): 421 nm
absorption maximum (in CCCCO): 426 nm
absorption maximum (in CCCO): 426 nm
absorption maximum (in CCO): 426 nm
absorption maximum (in CCOC(C)=O): 417 nm
absorption maximum (in CN(C)C=O): 425 nm
absorption maximum (in CO): 428 nm
absorption maximum (in CS(C)=O): 426 nm
absorption maximum (in Cc1ccccc1): 405 nm
absorption maximum (in ClC(Cl)(Cl)Cl): 419 nm
absorption maximum (in ClCCl): 408 nm
absorption maximum (in O): 405 nm
absorption maximum (in c1ccccc1): 420 nm

absorption maximum (in C1COCCO1): 289 nm
Structure (SMILES): CCC(C)(C)c1ccc(-c2ccc(-c3ccc(C(C)(C)CC)cc3)cc2)cc1

absorption maximum (in ClCCl): 325 nm
Structure (SMILES): c1ccc(-n2c3ccccc3c3cc(-n4ccc5cc(-c6cccc7c6-c6ccccc6C7(c6ccccc6)c6ccccc6)ccc54)ccc32)cc1

absorption maximum (in ClC(Cl)Cl): 703 nm
Structure (SMILES): CN1C(=CC2=C([O-])C(=Cc3sc4ccccc4[n+]3C)C2=C(C#N)C#N)Sc2ccccc21

absorption maximum (in CC#N): 513 nm
absorption maximum (in CCCCCC): 518 nm
absorption maximum (in CCOC(C)=O): 515 nm
absorption maximum (in CO): 512 nm
absorption maximum (in ClCCl): 518 nm
Structure (SMILES): COC1=[N+]2C(=C(c3ccccc3)c3cc(SC#N)c(OC)n3[B-]2(F)F)C=C1SC#N

absorption maximum (in CCOC(C)=O): 326 nm
Structure (SMILES): CCn1c(-c2ccc(-c3ccc4c(c3)C3(c5ccccc5-c5ccccc53)c3ccccc3-4)cc2)c(-c2ccc3ccccc3c2)c(-c2ccc3ccccc3c2)c1-c1ccc(-c2ccc3c(c2)C2(c4ccccc4-c4ccccc42)c2ccccc2-3)cc1

Structure (SMILES): CN(C)c1ccc(-c2c(/C=C3/C=Cc4ccccc4N3C)c(=O)c2=O)cc1
absorption maximum (in C1CCCCC1): 358 nm
absorption maximum (in Cc1ccccc1): 362 nm
absorption maximum (in ClCCl): 509 nm

Structure (SMILES): c1ccc(-n2c(-c3cccc4ccccc34)nc3c4ccccc4c4ccccc4c32)cc1
absorption maximum (in Cc1ccccc1): 356 nm

absorption maximum (in ClCCl): 354 nm
Structure (SMILES): c1ccc(N(c2ccccc2)c2ccc3c(c2)-c2ccccc2C32c3ccccc3-n3c4ccccc4c4cccc2c43)cc1 (stereo not given)

absorption maximum (in C1COCCO1): 339 nm
absorption maximum (in CC#N): 338 nm
absorption maximum (in CO): 338 nm
absorption maximum (in ClCCl): 336 nm
Structure (SMILES): CN(C)c1nc(N)c2nc(C#N)n(Cc3ccccc3)c2n1

Structure (SMILES): O=C1C=C(Nc2ccccc2)CCC1
absorption maximum (in C1CCCCC1): 295 nm
absorption maximum (in C1CCOC1): 302 nm
absorption maximum (in C1COCCO1): 302 nm
absorption maximum (in CC1CCCCC1): 295 nm
absorption maximum (in CC#N): 307 nm
absorption maximum (in CC(C)O): 307 nm
absorption maximum (in CCO): 307 nm
absorption maximum (in CCOC(C)=O): 301 nm
absorption maximum (in CCOCC): 296 nm
absorption maximum (in CN(C)C=O): 306 nm
absorption maximum (in CO): 305 nm
absorption maximum (in CS(C)=O): 307 nm
absorption maximum (in ClC(Cl)(Cl)Cl): 299 nm
absorption maximum (in ClC(Cl)Cl): 303 nm
absorption maximum (in O): 306 nm

absorption maximum (in C1CCOC1): 362 nm
Structure (SMILES): CCC1(CC)c2cc(C#Cc3cccs3)ccc2-c2c1c1c(c3c2C(CC)(CC)c2cc(C#Cc4cccs4)ccc2-3)C(CC)(CC)c2cc(C#Cc3cccs3)ccc2-1

absorption maximum (in CC#N): 406 nm
Structure (SMILES): CCOC(=O)c1c2c3c(ccc(OC)c3c3cc4ccccc4cc13)N(C)C2=O

absorption maximum (in CC1CCCCC1): 293 nm
absorption maximum (in CC#N): 285 nm
absorption maximum (in CCCCCCC): 293 nm
absorption maximum (in CCO): 286 nm
absorption maximum (in CN(C)C=O): 284 nm
absorption maximum (in ClC(Cl)Cl): 285 nm
absorption maximum (in O): 280 nm
Structure (SMILES): c1cc(N2CCCC2)ccn1

Structure (SMILES): O=C(/C=C(\O)c1ccc(N2c3ccccc3Oc3ccccc32)cc1)c1ccc(N2c3ccccc3Oc3ccccc32)cc1
absorption maximum (in Cc1ccccc1): 441 nm

absorption maximum (in CO): 644 nm
absorption maximum (in ClC(Cl)Cl): 655 nm
absorption maximum (in ClCCl): 659 nm
Structure (SMILES): CC[n+]1c(C=C2C(=O)C(C=C3N(C)c4ccc(Cl)cc4C3(C)C)=C2[O-])[se]c2ccccc21

Structure (SMILES): O=C(c1ccncc1)c1ccc(-n2c3ccc(-n4c5ccccc5c5ccccc54)cc3c3cc(-n4c5ccccc5c5ccccc54)ccc32)cc1
absorption maximum (in C1CCOC1): 341.83 nm
absorption maximum (in Cc1ccccc1): 360.08 nm
absorption maximum (in ClCCl): 341.83 nm

absorption maximum (in ClCCl): 317 nm
Structure (SMILES): COc1cc2c(cc1OC)C1=C[C@H](c3ccc(C)cc3)C3(C(C#N)=C(C#N)N1CC2)c1ccccc1-c1ccccc13

absorption maximum (in ClCCl): 385 nm
Structure (SMILES): Cc1cccc(-c2c3ccccc3cc3ccccc23)n1
